Results published in patent US20240279202A1 (NURIX THERAPEUTICS, INC., priority 2021, published 2024).

The molecules below were run against T1, ITK (Mus musculus, UniProt Q03526) (assay: Mouse PD assay for ITK degradation (Western blot, splenocytes after oral administration)). Details: percent ITK remaining in mouse splenocytes relative to vehicle, 90 mpk PO, 6 h.
T1 construct: mice were sacrificed and splenocytes were isolated and used to prepare protein lysates; from tissue; host or cells: mouse splenocytes (spleen) after oral dosing
T1 sequence (Q03526 1-625): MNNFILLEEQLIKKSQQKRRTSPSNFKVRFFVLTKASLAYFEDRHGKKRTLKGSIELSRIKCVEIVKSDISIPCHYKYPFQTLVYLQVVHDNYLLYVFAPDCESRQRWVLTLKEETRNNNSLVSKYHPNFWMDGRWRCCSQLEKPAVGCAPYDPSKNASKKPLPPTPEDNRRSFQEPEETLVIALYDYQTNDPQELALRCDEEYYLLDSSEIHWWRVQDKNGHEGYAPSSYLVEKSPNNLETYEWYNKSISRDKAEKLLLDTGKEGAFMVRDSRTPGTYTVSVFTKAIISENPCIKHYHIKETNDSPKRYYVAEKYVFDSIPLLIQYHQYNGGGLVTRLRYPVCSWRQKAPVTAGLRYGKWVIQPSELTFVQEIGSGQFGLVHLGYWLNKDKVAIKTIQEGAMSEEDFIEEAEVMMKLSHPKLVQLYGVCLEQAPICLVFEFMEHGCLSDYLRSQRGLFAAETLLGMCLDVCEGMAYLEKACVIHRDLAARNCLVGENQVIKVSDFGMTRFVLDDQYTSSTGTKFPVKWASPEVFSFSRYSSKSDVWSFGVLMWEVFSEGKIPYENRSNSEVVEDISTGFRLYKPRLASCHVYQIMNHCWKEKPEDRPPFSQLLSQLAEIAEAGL
Type: in vivo
In short: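 Mice dosed orally, some compounds at 90 mg/kg; splenocytes harvested after 6 hours (some 24 hours). ITK measured by Western blot of equal-protein lysates, normalized to actin. Values are % ITK remaining relative to vehicle-control mean.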

ITK (%) 90 mpk PO, 6 h | Compound
116% | CN(C(=O)CN1CCC2(CC1)CCN(c1ccc3c(c1)C(=O)N(C1CCC(=O)NC1=O)C3=O)C2)c1ccc2cc(-c3n[nH]c4c3C[C@@H]3C(F)(F)[C@]3(C)C4)[nH]c2c1 (stereo partly drawn) [Compound 72, N-(2-((4aS,5aR)-5,5-difluoro-5a-methyl-1,4,4a,5,5a,6-hexahydrocyclopropa[f]indazol-3-yl)-1H-indol-6-yl)-2-(2-(2-(2,6-dioxopiperidin-3-yl)-1,3-dioxoisoindolin-5-yl)-2,8-diazaspiro[4.5]decan-8-yl)-N-methylacetamide]
92% | CN(C(=O)CC1CCN(CC2CCN(c3ccc(C4CCC(=O)NC4=O)cn3)CC2)CC1)c1ccc2cc(-c3n[nH]c4c3C[C@@H]3C(F)(F)[C@]3(C)C4)[nH]c2c1 (stereo partly drawn) [Compound 73, N-(2-((4aS,5aR)-5,5-difluoro-5a-methyl-1,4,4a,5,5a,6-hexahydrocyclopropa[f]indazol-3-yl)-1H-indol-6-yl)-2-(1-((1-(5-(2,6-dioxopiperidin-3-yl)pyridin-2-yl)piperidin-4-yl)methyl)piperidin-4-yl)-N-methylacetamide]
137% | CN(C(=O)CC1CCN(CC2CCN(c3ccc(C(=O)NC4CCC(=O)NC4=O)nc3)CC2)CC1)c1ccc2cc(-c3n[nH]c4c3C[C@@H]3C(F)(F)[C@]3(C)C4)[nH]c2c1 (stereo partly drawn) [Compound 75, 5-(4-((4-(2-((2-((4aS,5aR)-5,5-difluoro-5a-methyl-1,4,4a,5,5a,6-hexahydrocyclopropa[f]indazol-3-yl)-1H-indol-6-yl)(methyl)amino)-2-oxoethyl)piperidin-1-yl)methyl)piperidin-1-yl)-N-(2,6-dioxopiperidin-3-yl)picolinamide]
